Measured values from patent publication US11135252B2, “Probiotic therapies for developmental disorders and other neurological disorders” (Baylor College of Medicine, priority 2016, dated 2021).
“Also recorded” adds a separate entry of the source.

Key:
MHFD offspring [1] = assay: Three-chamber social test in MHFD offspring; type: in vivo, mice; settings: for preference for social novelty / sociability: intranasal oxytocin approximately 200 μg/kg, 30 min prior; for preference for social novelty (time interacting with novel vs familiar mouse) / sociability (time interacting with mouse vs empty cage): in drinking water from weaning for 4 weeks, 1×10^8 organisms/mouse/day
Experimental: Crawley's three-chamber test for sociability and preference for social novelty was performed as described (Silverman et al., 2010). In brief, the mouse first experienced a 10-minute period of habituation during which it was allowed to freely explore a 60×40×23 cm Plexiglass arena divided into three equally sized, interconnected chambers (Left, Center, Right). Sociability was measured during a second ten-minute period in which the subject could interact either with an empty wire cup (Empty) or a wire cup containing an age and sex-matched stranger conspecific (Mouse 1). Time spent interacting (sniffing, crawling upon) with either the empty cup or the stranger mouse contained in the other cup as well as time spent in each chamber was recorded using the AnyMaze software, by independent observers. Empty cup placement in the Left or Right chamber during the Sociability period was counterbalanced between trials. Finally, preference for social novelty was assayed by introducing a second stranger mouse (Mouse 2) into the previously the empty wire cup. Time spent in each chamber as well as time spent interacting with either Mouse 1 or Mouse 2 was recorded using the automated AnyMaze software by independent observers. Lactobacillus reuteri MM4-1A (ATCC-PTA-6475) and Lactobacillus johnsonii (ATCC 33200) were cultured anaerobically in MRS broth in a 90% N2, 5% CO2, 5% H2 environment. L. reuteri was heat-killed by keeping the bacteria at 80° C. for 20 minutes (Wang et al., 2010). Bacterial viability was assessed by plating and the efficacy of the heat-kill procedure was confirmed by the absence of colony growth following plating. Cultures were centrifuged, washed, and resuspended in anaerobic solution (PBS) and frozen at −80° C. until use. PBS, live or heat-killed L. reuteri were added to the drinking water, which was changed daily to minimize dosage variability. Whereas the experimental group received live bacteria, one control group received identically prepared cultures of heat-killed bacteria. A second group of control mice received water treated with PBS alone. Live and heat-killed L. reuteri were supplied at a dosage of 1×10^8 organisms/mouse/day continuously in drinking water. Mice consumed the treated water ad libitum over the treatment period. The treated drinking water for each group was replaced daily two hours prior to the onset of the dark cycle to minimize variation in microbial exposure. Behavioral assays were initiated after 4-weeks of L. reuteri or control treatment. The protocol of the L. johnsonii preparation and administration matched the L. reuteri protocol. Fecal samples for sequencing and tissue used in the immunofluorescence studies were collected at the end of the treatment. Oxytocin was obtained from Tocris Bioscience (product 1910) and solubilized in 10% dimethyl sulfoxide (DMSO) in PBS. 10% DMSO in PBS was used as the vehicle control. Mice received oxytocin intranasally (at approximately 200 μg/kg) thirty minutes prior to behavior. 1.25 μl of oxytocin or vehicle solution was injected into each nostril from P10 pipette. Oxytocin dose was selected according to dosages reported to rescue social behavior in genetic models phenotypically expressing ASD-like behaviors (Penagarikano et al., 2015).

MHFD offspring [2] = assay: Open field test in MHFD offspring; type: in vivo, mice; settings: L. reuteri in drinking water
Experimental: Mice were placed in an open arena (40×40×20 cm) and allowed to explore freely for 10 minutes while their position was continually monitored using tracking software (ANY-Maze). Tracking allowed for measurement of distance traveled, speed, and position in the arena throughout the task. Time spent in the center of the arena, defined as the interior 20×20 cm, was recorded. Lactobacillus reuteri MM4-1A (ATCC-PTA-6475) and Lactobacillus johnsonii (ATCC 33200) were cultured anaerobically in MRS broth in a 90% N2, 5% CO2, 5% H2 environment. L. reuteri was heat-killed by keeping the bacteria at 80° C. for 20 minutes (Wang et al., 2010). Bacterial viability was assessed by plating and the efficacy of the heat-kill procedure was confirmed by the absence of colony growth following plating. Cultures were centrifuged, washed, and resuspended in anaerobic solution (PBS) and frozen at −80° C. until use. PBS, live or heat-killed L. reuteri were added to the drinking water, which was changed daily to minimize dosage variability. Whereas the experimental group received live bacteria, one control group received identically prepared cultures of heat-killed bacteria. A second group of control mice received water treated with PBS alone. Live and heat-killed L. reuteri were supplied at a dosage of 1×10^8 organisms/mouse/day continuously in drinking water. […]

| Compound | preference for social novelty (MHFD offspring [1]) | sociability (MHFD offspring [1]) | preference for social novelty (MHFD offspring [1]; listed as Oxytocin) | sociability (MHFD offspring [1]; listed as Oxytocin) | preference for social novelty (time interacting with novel vs familiar mouse) (MHFD offspring [1]) | sociability (time interacting with mouse vs empty cage) (MHFD offspring [1]) | preference for social novelty (time interacting with novel vs familiar mouse) (MHFD offspring [1]; listed as live L. reuteri) | sociability (time interacting with mouse vs empty cage) (MHFD offspring [1]; listed as live L. reuteri) | preference for social novelty (chamber containing Mouse 2, FIG. 16B) (MHFD offspring [1]; in drinking water, 4 weeks) | sociability (chamber containing a mouse, FIG. 16A) (MHFD offspring [1]; in drinking water, 4 weeks) | time exploring the center of the open field arena (anxiety-related behavior) (MHFD offspring [2]) |
| --- | --- | --- | --- | --- | --- | --- | --- | --- | --- | --- | --- |
| CC[C@H](C)[C@@H]1NC(=O)[C@H](Cc2ccc(O)cc2)NC(=O)[C@@H](N)CSSC[C@@H](C(=O)N2CCC[C@H]2C(=O)N[C@@H](CC(C)C)C(=O)NCC(N)=O)NC(=O)[C@H](CC(N)=O)NC(=O)[C@H](CCC(N)=O)NC1=O [oxytocin] | improved | improved sociability | restored | restored | – | – | – | – | – | – | – |
| Lactobacillus reuteri MM4-1A (ATCC-PTA-6475) [L. reuteri] | – | – | – | – | significantly improved | significantly improved sociability | rescued | rescued sociability | improved | improved MHFD offspring sociability | failed to rescue the changes in anxiety; also recorded: did not significantly affect this behavior |
